Results as given in US9290511B2, “Thieno-pyrimidines, useful as potassium channel inhibitors” (XENTION LIMITED, priority 2011, dated 2016).

Target: T1, Kir3.1/3.4 (Rattus norvegicus, UniProt P48548+P63251)
T1 construct: expressed in transfected cells
T1 sequence (P63251 1-501): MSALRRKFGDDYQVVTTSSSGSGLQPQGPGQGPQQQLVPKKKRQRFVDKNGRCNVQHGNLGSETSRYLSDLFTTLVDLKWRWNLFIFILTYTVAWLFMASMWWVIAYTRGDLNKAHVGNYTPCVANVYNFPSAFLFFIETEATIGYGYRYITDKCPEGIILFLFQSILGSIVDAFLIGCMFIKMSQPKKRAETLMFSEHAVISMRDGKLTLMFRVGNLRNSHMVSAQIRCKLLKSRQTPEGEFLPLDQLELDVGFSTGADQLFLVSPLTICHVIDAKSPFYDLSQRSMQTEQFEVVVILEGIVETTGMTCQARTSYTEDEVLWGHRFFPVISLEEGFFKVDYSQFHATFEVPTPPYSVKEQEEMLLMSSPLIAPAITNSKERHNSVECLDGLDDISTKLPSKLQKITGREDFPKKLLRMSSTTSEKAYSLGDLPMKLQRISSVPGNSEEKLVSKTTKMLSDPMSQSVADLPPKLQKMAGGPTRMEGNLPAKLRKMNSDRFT
T1 sequence (P48548 1-419): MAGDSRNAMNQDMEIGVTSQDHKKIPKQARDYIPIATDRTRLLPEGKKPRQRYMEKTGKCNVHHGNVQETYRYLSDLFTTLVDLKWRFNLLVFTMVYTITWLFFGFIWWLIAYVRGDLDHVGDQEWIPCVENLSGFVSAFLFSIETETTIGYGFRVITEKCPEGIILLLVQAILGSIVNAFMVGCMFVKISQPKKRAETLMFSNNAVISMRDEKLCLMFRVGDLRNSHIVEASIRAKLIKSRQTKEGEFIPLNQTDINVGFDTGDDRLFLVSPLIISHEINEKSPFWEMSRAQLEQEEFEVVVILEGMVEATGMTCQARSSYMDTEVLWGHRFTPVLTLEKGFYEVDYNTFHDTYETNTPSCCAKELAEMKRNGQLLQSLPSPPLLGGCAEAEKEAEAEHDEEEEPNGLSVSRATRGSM
Experiment: Kir3.1/3.4 Electrophysiology Method (manual whole-cell patch clamp)
Assay type: cell-based
Conditions: Electrophysiology Method (TABLE 1)
Experimental: Compound activity against the recombinant G-protein activated inward rectifier current encoded by the heterotetramer Kir3.1/3.4 was assessed using manual whole-cell patch technique. The heterotetramer forms the pore-forming channel that conducts the acetylcholine/adenosine-activated potassium current in the heart.
For whole-cell patch-clamp studies, cells (Human Embryonic Kidney 293 stably transfected with rat Kir3.1/3.4) were seeded onto glass coverslips before recordings were made. Cells were seeded in sterile 30 mm Petri dishes at a density to enable isolated cells to be selected for patch clamp experiments. The dishes were stored in a humidified, gassed (5% CO2) incubator at 37° C. until use.
Whole-cell patch-clamp recordings of membrane currents were made following gigaohm seal formation between the patch electrode and the cell using HEKA EPC-9/10 amplifiers controlled by Pulse Software (Ver8.5x/8.6×/8.7×, HEKA, Germany). Coverslips seeded with cells were placed in a recording chamber mounted on the stage of an inverted microscope. During the experiment, the cell of interest was continuously superfused with bather solution delivered via a cannula placed in close proximity to the cell to enable control of the extracellular solution environment. Only those cells with a current <−500 pA (current at −140 mV) were used for experiments. During experiments, series resistance was compensated by a minimum of 70%.
Electrophysiology voltage-step protocols and analysis of data were performed as follows. Data was sampled at 5 kHz, and filtered with a −3 dB bandwidth of 2.5 kHz. Cells were held at a voltage of −60 mV. Currents were evoked by a depolarising voltage step to +60 mV (100 ms) before a ramp-repolarisation (0.4 V·s^−1) to −140 mV (100 ms) before returning to −60 mV. The command waveform was repeatedly applied every 10 s throughout the experiment. Mean currents during 1-99% of the time at −140 mV were analysed using Pulsefit software (v8.x, HEKA, Germany). The voltage protocol was repeatedly applied to achieve a stable current baseline in bather before the test substance was superfused via the cannula in close proximity to the cell under investigation. The test substance was allowed to equilibrate during which time voltage protocol was repeatedly applied and recorded. On reaching steady-state inhibition, the cell was superfused with an identical bather solution containing zero external potassium chloride (replaced by equimolar NaCl). The identical current measurement was made in the absence of potassium to assess the passive leak at −140 mV. The leak current was subtracted from the control and steady-state drug current values. The percentage inhibition of the leak-subtracted current in the presence of test substance was calculated relative to the control leak-subtracted pre-drug value. Internal patch-pipette solution contained in mM: 110 KCl, 20 NaCl, 0.9 GTPγS, 5 Mg-ATP, 5 EGTA, 10 HEPES, pH7.2 corrected with KOH. The external superfusate composition in mM was: 150 (or 160) NaCl, 10 (or 0) KCl, 3 CaCl2, 1 MgCl, 10 HEPES, pH 7.4 corrected with NaOH.

Compound | IC50
COCCNc1nc(N2CCC(CNC3CCC3)CC2)c2c(-c3ccccc3)csc2n1 [Example 126] | < 0.5 µM
CC1CC(CNCCC2CCCN2C)CN1c1ncnc2scc(-c3ccccc3)c12 (stereo not drawn) [Example 209] | < 0.5 µM
CC(C)(CNCC1CCN(c2ncnc3scc(-c4ccccc4)c23)CC1)N1CCOCC1 [Example 59, 2-methyl-2-morpholino-N-[[1-(5-phenylthieno[2,3-d]pyrimidin-4-yl)-4-piperidyl]methyl]propan-1-amine] | < 0.5 µM
FC(F)CNCC1CCN(c2ncnc3scc(-c4ccccc4)c23)CC1 [Example 52, 2,2-difluoro-N-[[1-(5-phenylthieno[2,3-d]pyrimidin-4-yl)-4-piperidyl]methyl]ethanamine] | 0.5 to 3 µM
CN(C)C1CCN(c2nc(NCCN3CCCC3)nc3scc(-c4ccccc4)c23)CC1 [Example 179] | 0.5 to 3 µM
CN1CCN(c2nc(N3CCC(CN4CCCC(N(C)C)C4)CC3)c3c(-c4ccccc4)csc3n2)CC1 (stereo not drawn) [Example 115] | < 0.5 µM
CC(C)c1csc2ncnc(N3CC4CC3CC4OCCN3CC[C@H](F)C3)c12 (stereo partly drawn) [Example 294] | < 0.5 µM
CN1CCC(N(C)CC2CCN(c3nc(NCC4CC4)nc4scc(-c5ccccc5)c34)CC2)C1 (stereo not drawn) [Example 119] | < 0.5 µM
c1ccc(-c2csc3ncnc(N4C5CCC4CC(OCCN4CCCC4)C5)c23)cc1 (stereo not drawn) [Example 289] | < 0.5 µM
c1ccc(COC2CCN(c3ncnc4scc(-c5ccccc5)c34)C2)cc1 (stereo not drawn) [Example 178, d]pyrimidine] | 0.5 to 3 µM
CNC(=O)c1sc2ncnc(N3CCC(COCCN4CCCC4)CC3)c2c1C(C)C [Example 134] | 0.5 to 3 µM
8-azabicyclo[3.2.1]octan-3-amine [Example 325] | < 0.5 µM
F[C@H]1CCN(CCOC2CC3CC2CN3c2ncnc3scc(-c4ccccc4)c23)C1 (stereo partly drawn) [Example 291] | < 0.5 µM
CN1CCCC1CCNCC1CCN(c2ncnc3scc(-c4ccccc4)c23)CC1 (stereo not drawn) [Example 58, 2-(1-methylpyrrolidin-2-yl)-N—[[1-(5-phenylthieno[2,3-d]pyrimidin-4-yl)-4-piperidyl]methyl]ethanamine] | < 0.5 µM
CC(C)(C)NC(C)(C)C#Cc1ncnc2scc(-c3ccccc3)c12 [Example 318] | < 0.5 µM
CC(C)NCC1CC2CCC(C1)N2c1ncnc2scc(-c3ccccc3)c12 (stereo not drawn) [Example 334] | < 0.5 µM
c1ccc(-c2csc3ncnc(N4CCC(N5CCCCC5)C4)c23)cc1 (stereo not drawn) [Example 181, d]pyrimidine] | 0.5 to 3 µM
NC(=O)[C@H]1CCCN1CCOCC1C2CN(c3ncnc4scc(-c5ccc(F)cc5)c34)CC12 (stereo partly drawn) [Example 45, (2R)-1-[2-[[3-[5-(4-fluorophenyl)thieno[2,3-d]pyrimidin-4-yl]-3-azabicyclo[3.1.0]hexan-6-yl]methoxy]ethyl]pyrrolidine-2-carboxamide] | < 0.5 µM
NC(=O)C1CCN(c2nc(N3CCC(CNC4CCC4)CC3)c3c(-c4ccccc4)csc3n2)C1 (stereo not drawn) [Example 128] | 0.5 to 3 µM
COCC1CCN(c2nc(CC(=O)N3CCCC3)nc3scc(-c4ccccc4)c23)CC1 [Example 183, 2-[4-[4-(methoxymethyl)-1-piperidyl]-5-phenyl-thieno[2,3-d]pyrimidin-2-yl]-1-pyrrolidin-1-yl-ethanone] | 0.5 to 3 µM
O=C(NCCN1CCCC1)C1CCCN(c2ncnc3scc(-c4ccccc4)c23)C1 (stereo not drawn) [Example 268] | < 0.5 µM

Compound | IC50
NC(=O)C1CCN(CCOC2CC3CC2CN3c2ncnc3scc(-c4ccccc4)c23)C1 (stereo not drawn) [Example 290] | < 0.5 µM
NCCNCC1CCN(c2ncnc3scc(-c4ccccc4)c23)CC1 [Example 63, N′-[[1-(5-phenylthieno[2,3-d]pyrimidin-4-yl)-4-piperidyl]methyl]ethane-1,2-diamine] | < 0.5 µM
CN(C)C1CCN(CC2CCN(c3nc(N4CCC(C(N)=O)C4)nc4scc(-c5ccccc5)c34)CC2)CC1 (stereo not drawn) [Example 235] | < 0.5 µM
c1ccc(-c2csc3ncnc(N4CCCC(OCCN5CCCC5)C4)c23)cc1 (stereo not drawn) [Example 272] | < 0.5 µM
F[C@@H]1CCN(CCOCC2CCN(c3ncc4c(-c5ccccc5)csc4n3)CC2)C1 [Example 151] | < 0.5 µM
c1ccc(-c2csc3nc(N4CCC(COCCN5CCCC5)CC4)nc(N4CCOCC4)c23)cc1 [Example 276] | < 0.5 µM
CC(C)NC(=O)c1sc2ncnc(N3CCC(COCCN4CCCC4)CC3)c2c1C(C)C [Example 264] | 0.5 to 3 µM
CN1CCC(CCNCC2CCN(c3ncnc4scc(-c5ccccc5)c34)CC2)C1 (stereo not drawn) [Example 104] | < 0.5 µM
CN(C)C(=O)c1ccccc1-c1csc2ncnc(N3CCC(COCCN4CCCC4)CC3)c12 [Example 330] | 3 to 10 µM
c1ccc(-c2csc3nc(C4CC4)nc(N4CCC(COCCN5CCCC5)CC4)c23)cc1 [Example 360] | < 0.5 µM
COCC1CCN(c2nc(CCN3CCCC3)nc3scc(-c4ccc(F)cc4)c23)CC1 [Example 184, 5-(4-fluorophenyl)-4-[4-(methoxymethyl)-1-piperidyl]-2-(2-pyrrolidin-1-ylethyl)thieno[2,3-d]pyrimidine] | < 0.5 µM
CN1CCN(c2nc(N3CCC(CNC4(CO)CCCC4)CC3)c3c(-c4ccccc4)csc3n2)CC1 [Example 113] | 0.5 to 3 µM
CN(C)C(=O)c1sc2ncnc(N3C4CCC3CC(N(C)C3CCC3)C4)c2c1-c1ccccc1 (stereo not drawn) [Example 347] | < 0.5 µM
c1ccc(-c2csc3ncnc(N4CCC(CNC5CCC5)CC4)c23)cc1 [Example 64, N-[[1-(5-phenylthieno[2,3-d]pyrimidin-4-yl)-4-piperidyl]methyl]cyclobutanamine] | < 0.5 µM
c1ccc(-c2csc3ncnc(N4CCC(OCCN5CCCC5)CC4)c23)cc1 [Example 271] | < 0.5 µM
CN1CCC(N(C)CC2CCN(c3nc(CN4CCCC4=O)nc4scc(-c5ccccc5)c34)CC2)C1 (stereo not drawn) [Example 244, 1-[[4-[4-[[methyl-(1-methylpyrrolidin-3-yl)amino]methyl]-1-piperidyl]-5-phenyl-thieno[2,3-d]pyrimidin-2-yl]methyl]pyrrolidin-2-one] | < 0.5 µM
Fc1ccc(-c2csc3ncnc(N4CCC(COCCN5CCOCC5)CC4)c23)cc1 [Example 21, 4-[2-[[1-[5-(4-fluorophenyl)thieno[2,3-d]pyrimidin-4-yl]-4-piperidyl]methoxy]ethyl]morpholine] | < 0.5 µM
CN(C)C1CCCN(CC2CCN(c3nc(N4CCC(C(N)=O)C4)nc4scc(-c5ccccc5)c34)CC2)C1 (stereo not drawn) [Example 123] | < 0.5 µM
CC(=O)NC1CCN(c2nc(N3CCC(COCCN4CCOCC4)CC3)c3c(-c4ccccc4)csc3n2)C1 (stereo not drawn) [Example 259] | < 0.5 µM
O=C1CN(CCOCC2CCN(c3ncnc4scc(-c5ccccc5)c34)CC2)CCN1 [Example 28, 4-[2-[[1-(5-phenylthieno[2,3-d]pyrimidin-4-yl)-4-piperidyl]methoxy]ethyl]piperazin-2-one] | 0.5 to 3 µM
c1ccc(-c2csc3ncnc(N4CC(COCCN5CCCC5)C4)c23)cc1 [Example 273] | 0.5 to 3 µM
